Measurements from patent US5798365A, “Substituted quinoline derivatives, a process for their preparation, and their use” (Hoechst Aktiengesellschaft, priority 1994, dated 1998).
Values after ≈ are worked out from the molar mass of the structure shown. Read-outs that look alike come from different tables or passages of the source.

Tests used:
[1] = tested on: HIV; test: Testing preparations against HIV in cell culture (infected human donor lymphocytes); format: cell-based; details: for MIC: Human immunodeficiency virus 1, 72 h, lowest concentration without giant cells; for IC50: Human immunodeficiency virus 1, Lymphocyte, 72 h
Description: Testing preparations against HIV in cell culture
Description of the method
The complete medium additionally contains 20% foetal calf serum and 40 IU/ml recombinant interleukin 2.
Lymphocytes which have been isolated from fresh donor blood by means of Ficoll® gradient centrifugation are cultured, at 37° C. for 36 h and under 5% CO2, in complete medium in the added presence of […] phytohemagglutinin (Wellcome). After the addition of 10% DMSO, the cells are frozen at a cell density of 5×10^6 and stored in liquid nitrogen. For the experiment, the cells are thawed, washed in RPMI medium and cultured for 3-4 days in complete medium.
The preparations for testing were dissolved in DMSO at a concentration of 16.7 mg/ml and diluted to 1 mg/ml in complete medium. 0.4 ml of medium was initially introduced in 24-well multiwell plates. After 0.1 ml of the dissolved preparation had been added to the upper row of the plate, a geometrical dilution series was produced by transferring 0.1 ml on each occasion. Preparation-free controls always contained 0.4 ml of complete medium containing 0.5% DMSO.
Lymphocyte cultures having a cell count of 5×10^5 cells/ml were infected by adding a 1/50 volume of the supernatant from lymphocyte cultures infected with HIV. The titer of these culture supernatants was determined, by end point dilution, to be 1-5×10^6 infectious units/ml. After incubating at 37° C. for 30 min, the infected lymphocytes were centrifuged off and taken up once again in the same volume of medium. 0.6 ml of this cell suspension was added to each of the wells in the test plate. The assay mixtures were incubated at 37° C. for 3 days.
The infected cell cultures were examined under the microscope for the presence of giant cells, which indicate that the virus is multiplying actively in the culture. The lowest preparation concentration at which no giant cells appeared was defined as the inhibitory concentration against HIV (MIC value). As a control, the presence of HIV antigen in the supernatants from the culture plates was determined using a test for HIV antigen in accordance with the manufacturer's (Organon) instructions.

[2] = target: T1, HIV reverse transcriptase (Human immunodeficiency virus type 1 group M subtype B, UniProt P04585); test: Inhibition of HIV reverse transcriptase, scintillation proximity assay (SPA); format: biochemical; details: RT-SPA, 60 min, 37° C., read-out: Reverse Transcriptase Asaay IC-50 (converted)
T1 construct: purchased HT-Biotechnology LTD, Cambridge, UK; host or cells: E. coli
Description: Investigation of the ability of the substances to inhibit the HIV reverse transcriptase
The activity of the reverse transcriptase (RT) was measured by means of a scintillation proximity assay (SPA).
The reagent kit for the RT-SPA was obtained from Amersham/Buchler (Braunschweig). The RT enzyme (originating from HIV and cloned in E. coli) was provided by HT-Biotechnology LTD, Cambridge, UK.
The test was carried out in accordance with the supplier's (Amersham) methods manual--with the following modifications:
bovine serum albumin was added to the assay buffer to a final concentration of 0.5 mg/ml.
The test was carried out in Eppendorf reaction tubes using a mixture volume of […].
The supplier's RT concentrate (5000 U/ml) was diluted in 20 mM tris-HCl buffer; pH 7.2; 30% glycerol to an activity of 15 U/ml.
The assay mixtures were incubated for 60 min (at 37° C.).
After the reaction had been stopped and "developed" using the bead suspension, […] of assay mixture was transferred into 4.5 ml of 10 mM tris-HCl buffer; pH 7.4; 0.15M NaCl
and the tritium activity was measured in a β counter.
In order to carry out a preliminary test for inhibitor activity, the substances were dissolved in DMSO (stock solution concentration=1 mg/ml) and tested at 10^-1, 10^-2, 10^-3, etc. dilutions in DMSO.
In order to determine the IC50 values, the stock solutions of inhibitor were further diluted in 50 mM tris-HCl buffer, pH 8, and tested at suitable concentrations.
The concentration giving rise to 50% inhibition of the enzyme was ascertained from the graphic depiction of RT activity versus log Cinh.

[3] = HIV-infected lymphocytes, 3 days, 37° C.
[4] = HIV-infected lymphocytes, 3 days, 37° C., read-out: IC-50

What does the source list for `COc1ccc2c(c1)C(=CC(C)C)C(C)(C)C(=S)N2` [Compound 61]?
MIC [1, 3]: 0.02 µg/mL (≈ 0.0726 µM); IC50 [1, 4]: ~0.004 µg/mL (≈ 0.0145 µM); IC50 ([2]; molar value in parentheses): 62 nM; IC50 [2]: 61.7 nM

For `COc1ccc2c(c1)C(=CCC(C)C)C(C)(C)C(=O)N2` [Compound 66], which MIC [1, 3] is on record?
The MIC was < 0.1 µg/mL.

What about the IC50 ([1]; HIV-infected lymphocytes, 3 days, unit as printed for compound 66, read-out: IC-50) of the same molecule?
Its IC50 is ~0.01 µg/mL (≈ 0.0366 µM).

And the IC50 ([2]; molar value in parentheses)?
Its IC50 is 70 nM.

And the IC50 [2]?
Its IC50 is 69.5 nM.

`CC(C)CC=C1c2ccccc2NC(=O)C12CCCC2` [Compound 67] was tested. Which MIC [1, 3] did it give?
Its MIC is < 0.1 µg/mL.

And the IC50 [1, 4]?
The IC50 was ~0.02 µg/mL (≈ 0.0742 µM).

And the IC50 ([2]; molar value in parentheses)?
Its IC50 is 91 nM.

And the IC50 [2]?
Its IC50 is 89.1 nM.

Which MIC [1, 3] does the source give for `COc1ccc2c(c1)C(=CCC(C)C)C(C)(C)C(=S)N2` [Compound 69] here?
The MIC was < 0.02 µg/mL.

And the IC50 [1]?
Its IC50 is ~0.0018 µg/mL (≈ 0.00622 µM).

What about the IC50 ([2]; molar value in parentheses) of the same molecule?
Its IC50 is 18 nM.

What about the IC50 [2] of the same molecule?
The IC50 was 17.3 nM.

Which results are given for `CC(C)CC=C1c2ccccc2NC(=S)C12CCCC2` [Compound 70]?
MIC [1, 3]: 0.02 µg/mL (≈ 0.0701 µM); IC50 [1, 4]: ~0.003 µg/mL (≈ 0.0105 µM); IC50 ([2]; molar value in parentheses): 21 nM; IC50 [2]: 21 nM

Which MIC [1, 3] does the source give for `CC/C=C1\c2cc(Cl)ccc2NC(=S)C1(C)C` [Compound 71] here?
Its MIC is 0.0016 µg/mL (≈ 0.00602 µM).

And the IC50 ([2]; molar value in parentheses)?
The IC50 was 5 nM.

What about the IC50 [2] of the same molecule?
The IC50 was 3.76 nM.

Which results are given for `CCC/C=C1\c2cc(Cl)ccc2NC(=O)C1(C)C` [Compound 73, E-4-n-butylene-6-chloro-3,4-dihydro-3,3-dimethylquinolin-2(1H)-one]?
MIC [1, 3]: < 0.04 µg/mL; IC50 [1, 4]: 0.02 µg/mL (≈ 0.0758 µM); IC50 ([2]; molar value in parentheses): 30 nM; IC50 [2]: 30.3 nM

Which results are given for `CCC/C=C1\c2cc(Cl)ccc2NC(=S)C1(C)C` [Compound 75, E-4-n-butylene-6-chloro-3,4-dihydro-3,3-dimethylquinolin-2(1H)-thione]?
MIC [1, 3]: 0.004 µg/mL (≈ 0.0143 µM); IC50 [1, 4]: ~0.0018 µg/mL (≈ 0.00643 µM); IC50 [2]: < 3.57 nM

What does the source list for `COc1ccc2c(c1)C(=C1CCCC1)C(C)(C)C(=O)N2` [Compound 138]?
MIC [1, 3]: > 0.2 µg/mL; IC50 [1, 4]: 0.03 µg/mL (≈ 0.111 µM); IC50 [2]: 225 nM

Which MIC [1, 3] does the source give for `COc1ccc2c(c1)C(=C1CCCC1)C(C)(C)C(=S)N2` [Compound 140] here?
Its MIC is 0.2 µg/mL (≈ 0.696 µM).

And the IC50 [1, 4]?
The IC50 was 0.006 µg/mL (≈ 0.0209 µM).

What about the IC50 [2] of the same molecule?
Its IC50 is 17.4 nM.

For `CCOC(=O)/C=C1\c2cc(Cl)ccc2NC(=S)C1(C)C` [Compound 142], which MIC [1, 3] is on record?
Its MIC is < 0.2 µg/mL.

What about the IC50 [1, 4] of the same molecule?
The IC50 was 0.004 µg/mL (≈ 0.0129 µM).

What about the IC50 [2] of the same molecule?
Its IC50 is 123 nM.
